This is an account of results in ChEMBL document CHEMBL5661943, “ASAP - In vitro antiviral effect” (2024).

Usually EC50 stands for the concentration giving half of the maximal effect. What is called EC90 is the concentration at which the effect reaches the 90% level.

Molecules are shown by their SMILES. Several values for one entry are separate records, joined by “and”; a condition that tells them apart may be missing. Equal values may be shown once.

The subject of assay [1] is dengue virus type 2. The assay can be described thus: Functional immunofluorescence assay to measure dose dependent changes in antiviral-drug inhibitory efficacy against Dengue virus type 2 Thailand/16681/84 in Vero E6/TMPRSS2 cells (cotreated with P-gp inhibitor, Elacridar). Cells are treated with antiviral candidates that are serially diluted, following infection, cells are fixed. EC50 is reported via analysis of immunofluorescence staining. The assay has been performed by Icahn School of Medicine at Mount Sinai. Conditions: Dengue virus. The format is organism-based, Chlorocebus sabaeus, VeroE6/TMPRSS2.

Assay [2] relates to Zika virus. Description: Functional CPE-based assay to measure dose dependent changes in antiviral-drug inhibitory efficacy against Zika virus MR766 in Vero E6 miRFP670 cells. Cells are treated with antiviral candidates that are serially diluted. EC50 is reported via analysis of MTS assay as a readout of CPE. The assay has been performed by KU Leuven. Conditions: Zika virus; for EC50: Vero C1008. The format is organism-based, Chlorocebus sabaeus, Vero C1008. In general terms: Tetrazolium dyes change colour on reduction, which living cells bring about.

Assay [3] has as its system dengue virus type 2. The assay can be described thus: Functional assay to measure dose dependent changes in antiviral-drug inhibitory efficacy against Dengue virus type 2 New Guinea C in Vero E6 miRFP670 cells (cotreated with P-gp inhibitor, CP100356). Cells are treated with antiviral candidates that are serially diluted, following infection, cells are fixed. EC50 is reported via analysis of fluorescence intensity using high-content imager. The …. The conditions noted are these: for EC90: P-gp concentration 500 nM, P-gp inhibitor CP100356. The format is organism-based, Chlorocebus sabaeus, Vero C1008.

Assay [4] relates to Zika virus. Description: EC50 is reported via analysis of immunofluorescence staining. The assay has been performed by Icahn School of Medicine at Mount Sinai. It counts as functional, organism-based, Chlorocebus sabaeus, VeroE6/TMPRSS2. Conditions: Zika virus; for EC90: P-gp concentration 2 uM, P-gp inhibitor Elacidar.
In assay [5] the test system is Zika virus. The assay can be described thus: Functional CPE-based assay to measure dose dependent changes in antiviral-drug inhibitory efficacy against Zika virus MR766 in Vero E6 miRFP670 cells (cotreated with P-gp inhibitor, CP100356). Cells are treated with antiviral candidates that are serially diluted. EC50 is reported via analysis of MTS assay as a readout of CPE. The assay has been performed by KU Leuven. It counts as organism-based, Chlorocebus sabaeus, Vero C1008. The conditions noted are these: for EC90: Baseline response 0 %, Maximum response 100 %, P-gp concentration 500 nM, P-gp inhibitor CP100356.

Turning to `O=C(Nc1ccc2c(c1)CNC2)c1cccc2[nH]ncc12`, the EC50 was more than 50 µM with dengue virus type 2 [1] (VeroE6/TMPRSS2); less than 0.391 µM with Zika virus [2]; less than 0.391 µM with dengue virus type 2 [3] (Dengue virus, Vero C1008). Moreover, the concentration for an effect of 90% (EC90) is more than 50 µM in the assay with dengue virus type 2 [1] (VeroE6/TMPRSS2, Maximum measured 158.189 %, Minimum measured 143.688 %, P-gp concentration 2 uM, P-gp inhibitor Elacidar); less than 0.391 µM in the assay with Zika virus [2] (Vero C1008, Baseline response 0 %, Hill slope -0.113, Maximum measured 48.96 %, Maximum response 100 %, Minimum measured -6.302 %, R squared 0.011); less than 0.391 µM in the assay with dengue virus type 2 [3] (Dengue virus, Vero C1008, Baseline response 0 %, Hill slope 0.492, Maximum measured 128.823 %, Maximum response 100 %, Minimum measured 60.42 %, R squared 0.116).

As to `O=C(Nc1ccc2c(c1)CNC2)c1cc(Cl)cc(C2CC2)c1`, the EC50 with Zika virus [4] (VeroE6/TMPRSS2) is more than 5.56 µM; in the assay on dengue virus type 2 [1] (VeroE6/TMPRSS2) it was more than 50 µM; with Zika virus [2], less than 0.391 µM; in the assay with dengue virus type 2 [3] (Dengue virus, Vero C1008) it was more than 12.5 µM. Also, the EC90 in the assay on Zika virus [4] (VeroE6/TMPRSS2, Baseline response 0 %, Hill slope -0.303, Maximum measured 133.833 %, Maximum response 100 %, Minimum measured 73.063 %, R squared 0.118) was more than 5.56 µM; with dengue virus type 2 [1] (VeroE6/TMPRSS2, Baseline response 0 %, Hill slope -0.218, Maximum measured 127.968 %, Maximum response 100 %, Minimum measured 35.242 %, P-gp concentration 2 uM, R squared 0.016, P-gp inhibitor Elacidar), more than 50 µM; in the assay with Zika virus [2] (Vero C1008, Baseline response 0 %, Hill slope -0.16, Maximum measured 19.084 %, Maximum response 100 %, Minimum measured -10.525 %, R squared 0.01) it was less than 0.391 µM; in the assay with dengue virus type 2 [3] (Dengue virus, Vero C1008, Baseline response 0 %, Hill slope -18.192, Maximum measured 115.18 %, Maximum response 100 %, Minimum measured 61.318 %, R squared 0.219) it was more than 12.5 µM.

For `CC(C)NC(=O)[C@H](Nc1ccc2c(c1)CNC2)c1cc(Cl)cc2[nH]ncc12`, the EC50 is more than 16.7 µM in the assay on Zika virus [4] (VeroE6/TMPRSS2); more than 50 µM with Zika virus [2]; > 50 µM and 5.7 µM in the assay with Zika virus [5] (vero c1008); more than 50 µM in the assay with dengue virus type 2 [3] (vero c1008). The EC90 in the assay with Zika virus [4] (VeroE6/TMPRSS2, Maximum measured 103.391 %, Minimum measured 35.108 %) is more than 16.7 µM; with Zika virus [2] (Vero C1008, Maximum measured -0.394 %, Minimum measured -3.218 %), more than 50 µM; in the assay on Zika virus [5] (Hill slope 0.274, Maximum measured 19.104 %, Minimum measured -8.849 %, R squared 0.058), more than 50 µM; in the assay on Zika virus [5] (Hill slope 0.987, Maximum measured 78.474 %, Minimum measured 2.604 %, R squared 0.941) it was more than 50 µM; with Zika virus [5] (Zika virus, Vero C1008, Hill slope 2.014, Maximum measured 45.209 %, Minimum measured -1.87 %, R squared 0.776), more than 50 µM; in the assay with dengue virus type 2 [3] (Dengue virus, Vero C1008, Maximum measured 125.719 %, Minimum measured 102.313 %) it was more than 50 µM. In addition, the EC90 with dengue virus type 2 [3] (Dengue virus, Vero C1008, Maximum measured 136.006 %, Minimum measured 106.773 %) was more than 50 µM; in the assay with dengue virus type 2 [3] (Dengue virus, Vero C1008, Maximum measured 137.073 %, Minimum measured 93.467 %), more than 50 µM; with dengue virus type 2 [3] (Dengue virus, Vero C1008, Baseline response 0 %, Hill slope 0.455, Maximum measured 96.007 %, Maximum response 100 %, Minimum measured 82.569 %, R squared 0.098), more than 6.25 µM.

For `O=C(Nc1ccc2c(c1)CNCCC2)c1cc(Cl)cc2[nH]ncc12`, the concentration giving a half-maximal response (EC50) in the assay with Zika virus [4] (VeroE6/TMPRSS2) was 47.6 µM; in the assay on dengue virus type 2 [1] (VeroE6/TMPRSS2), 26 µM; in the assay on Zika virus [2], more than 50 µM; in the assay on dengue virus type 2 [3] (Dengue virus, Vero C1008) it was more than 1.56 µM. For the same compound, the EC90 is more than 50 µM in the assay with Zika virus [4] (VeroE6/TMPRSS2, Baseline response 0 %, Hill slope -16.818, Maximum measured 150.619 %, Maximum response 100 %, Minimum measured 30.484 %, R squared 0.241); 45 µM in the assay with dengue virus type 2 [1] (VeroE6/TMPRSS2); more than 50 µM with Zika virus [2] (Vero C1008, Baseline response 0 %, Hill slope 0.723, Maximum measured 1.937 %, Maximum response 100 %, Minimum measured -1.308 %, R squared 0.05); more than 50 µM with Zika virus [2] (Vero C1008, Maximum measured 5.01 %, Minimum measured -5.78 %); more than 1.56 µM in the assay with dengue virus type 2 [3] (Dengue virus, Vero C1008, Baseline response 0 %, Hill slope 9.827, Maximum measured 112.729 %, Maximum response 100 %, Minimum measured 86.907 %, R squared 0.124).

In the case of `CC(C)c1nc2c(C(=O)Nc3ccc4c(c3)CNC4)cc(Br)cc2[nH]1`, the EC50 is more than 5.56 µM in the assay with Zika virus [4] (VeroE6/TMPRSS2); more than 16.7 µM in the assay on dengue virus type 2 [1] (VeroE6/TMPRSS2); less than 0.391 µM in the assay with Zika virus [2]; more than 3.12 µM with dengue virus type 2 [3] (Dengue virus, Vero C1008). For the same compound, the EC90 was more than 5.56 µM with Zika virus [4] (VeroE6/TMPRSS2, Baseline response 0 %, Hill slope 0.282, Maximum measured 117.995 %, Maximum response 100 %, Minimum measured 67.231 %, R squared 0.042); more than 16.7 µM in the assay with dengue virus type 2 [1] (VeroE6/TMPRSS2, Maximum measured 259.996 %, Minimum measured 97.005 %, P-gp concentration 2 uM, P-gp inhibitor Elacidar); less than 0.391 µM in the assay on Zika virus [2] (Vero C1008, Baseline response 0 %, Hill slope -0.56, Maximum measured 41.831 %, Maximum response 100 %, Minimum measured -11.106 %, R squared 0.026); more than 3.12 µM in the assay with dengue virus type 2 [3] (Dengue virus, Vero C1008, Maximum measured 127.324 %, Minimum measured 101.275 %).
